Experimental data: patent US20240059703A1 (AMGEN INC., priority 2021, published 2024)

Assays:
[1] = tested on: MIA PaCa-2 (human pancreatic carcinoma) cells; assay: Cell Viability Assay (CellTiter-Glo), MIA PaCa-2; type: cell-based; settings: Homo sapiens, MIA PaCa-2, 72 h
Description: Serially-diluted compound or DMSO was added to the cells, and plates were incubated at 37° C., 5% CO2 for 72 h. Cell viability was measured using a CellTiter-Glo® Luminescent Cell Viability Assay kit (Promega) according to the manufacturer's protocol. The luminescence signal of treated samples was normalized to DMSO control, and data were analyzed using a 4-parameter logistic model to calculate IC50 values.

KRAS G12C = KRAS G12C (Homo sapiens (Human), UniProt P01116, C118A/G12C); assay: 2 h coupled exchange assay; type: biochemical; settings: Avg 2 h Coupled exchange IC50, 2 h compound pre-incubation, SOS-mediated nucleotide exchange
KRAS G12C, sequence (P01116 other isoform, or with tags, fused parts or gaps G12C/C118A): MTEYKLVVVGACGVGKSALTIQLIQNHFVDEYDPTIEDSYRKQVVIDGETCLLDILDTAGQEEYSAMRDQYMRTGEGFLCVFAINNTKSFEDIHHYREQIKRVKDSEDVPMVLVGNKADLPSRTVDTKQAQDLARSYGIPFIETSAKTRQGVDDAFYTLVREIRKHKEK
Description: The term “2 h coupled exchange assay” or “20 h coupled exchange assay” as used herein refers to the assay described in the Section entitled “BIOLOGICAL EVALUATION.”

[2] = tested on: A549 (human lung carcinoma) cells; assay: Cell Viability Assay (CellTiter-Glo), A549; type: cell-based; settings: Homo sapiens, A549, 72 h
Summary of the method: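 MIA PaCa-2 or A549 cells in RPMI 1640 with 10% FBS were seeded at 1.67E+04 cells/mL and incubated overnight. Serially diluted compound was then added for 72 h at 37° C, 5% CO2. Viability read by CellTiter-Glo luminescence, normalized to DMSO, with IC50 from a 4-parameter logistic fit.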

Compound	IC50 [1] [nM]	IC50 (KRAS G12C) [nM]	IC50 [2] [nM]
C=CC(=O)N1CC2(CCN(c3cc4c(c(-c5c(C(F)(F)F)ccc6[nH]ncc56)c3Cl)OCCC4)C2)C1 [Example 2-103, 1-(6-(7-chloro-8-(5-(trifluoromethyl)-1H-indazol-4-yl)-3,4-dihydro-2H-chromen-6-yl)-2,6-diazaspiro[3.4]octan-2-yl)-2-propen-1-one]	118	294	> 5000
C=CC(=O)N1CC2(CCN(c3cc4c(c(-c5c(C)c(Cl)cc6cnn(C)c56)c3C#N)OCCC4)C2)C1 [Example 2-104, 8-(5-chloro-1,6-dimethyl-1H-indazol-7-yl)-6-(2-(2-propenoyl)-2,6-diazaspiro[3.4]octan-6-yl)-3,4-dihydro-2H-chromene-7-carbonitrile]	3	18	> 5000
C=CC(=O)N1CC2(C1)CN(c1nc3c(c(-c4c(C)ccc5[nH]ncc45)c1C#N)CCC(C)(C)C3)CC2(F)F [Example 2-105, 2-(8,8-difluoro-2-(2-propenoyl)-2,6-diazaspiro[3.4]octan-6-yl)-7,7-dimethyl-4-(5-methyl-1H-indazol-4-yl)-5,6,7,8-tetrahydro-3-quinolinecarbonitrile]	425	91	3420
C=CC(=O)N1CC2(CCN(c3cc4c(c(-c5c(C)c(Cl)cc6cnn(C)c56)c3C#N)OCCC4)[C@H]2C)C1 [Example 2-107, 8-(5-chloro-1,6-dimethyl-1H-indazol-7-yl)-6-((5S)-5-methyl-2-(2-propenoyl)-2,6-diazaspiro[3.4]octan-6-yl)-3,4-dihydro-2H-chromene-7-carbonitrile]	7	17	> 5000
C=CC(=O)N1CC2(CCN(c3cc4c(c(-c5c(C)c(Cl)cc6cnn(C)c56)c3Cl)OCCC4)C2)C1 [Example 2-110, 1-(6-(7-chloro-8-(5-chloro-1,6-dimethyl-1H-indazol-7-yl)-3,4-dihydro-2H-chromen-6-yl)-2,6-diazaspiro[3.4]octan-2-yl)-2-propen-1-one]	20	53	> 5000
C=CC(=O)N1CC2(CCN(c3nc(-c4c(C)ccc5[nH]ncc45)c4c(n3)N(C)CC4)C2)C1 [Example 5, 1-(6-(7-methyl-4-(5-methyl-1H-indazol-4-yl)-6,7-dihydro-5H-pyrrolo[2,3-d]pyrimidin-2-yl)-2,6-diazaspiro[3.4]octan-2-yl)prop-2-en-1-one]	12900	181000	> 25000
C=CC(=O)N1CC2(CCN(c3cc4c(ncn4C)c(-c4c(C)ccc5[nH]ncc45)c3C#N)C2)C1 [Example 7, 1-methyl-4-(5-methyl-1H-indazol-4-yl)-6-(2-(2-propenoyl)-2,6-diazaspiro[3.4]octan-6-yl)-1H-benzimidazole-5-carbonitrile]	3420	879	> 5000
C=CC(=O)N1CC2(CCN(c3nc4c(c(-c5cc(O)cc(C)c5Cl)c3C)COC(C)(C)C4)C2)C1 [Example 12-1, 1-(6-(4-(2-chloro-5-hydroxy-3-methylphenyl)-3,7,7-trimethyl-7,8-dihydro-5H-pyrano[4,3-b]pyridin-2-yl)-2,6-diazaspiro[3.4]octan-2-yl)prop-2-en-1-one]	88	94	> 5000
C=CC(=O)N1CC2(CCN(c3nc4c(c(-c5cc(O)cc(Cl)c5C)c3C)COC(C)(C)C4)C2)C1 [Example 12-2, 1-(6-(4-(3-chloro-5-hydroxy-2-methylphenyl)-3,7,7-trimethyl-7,8-dihydro-5H-pyrano[4,3-b]pyridin-2-yl)-2,6-diazaspiro[3.4]octan-2-yl)prop-2-en-1-one]	38	41	> 5000
C=CC(=O)N1CC2(CCN(c3nc4c(c(-c5c(C)cc(F)c6[nH]ncc56)c3C#N)C[C@H]3C[C@@H]4C3(C)C)C2)C1 [Example 12-11, (1R,9R)-6-(7-fluoro-5-methyl-1H-indazol-4-yl)-10,10-dimethyl-4-(2-(2-propenoyl)-2,6-diazaspiro[3.4]octan-6-yl)-3-azatricyclo[7.1.1.0^2,7] undeca-2,4,6-triene-5-carbonitrile]	20	36	3780
C=CC(=O)N1CC2(CCN(c3nc4c(c(-c5c(C)ccn6cncc56)c3C#N)C[C@H]3C[C@@H]4C3(C)C)C2)C1 [Example 12-19, (1R,9R)-10,10-dimethyl-6-(7-methylimidazo[1,5-a]pyridin-8-yl)-4-(2-(2-propenoyl)-2,6-diazaspiro[3.4]octan-6-yl)-3-azatricyclo[7.1.1.0^2,7] undeca-2,4,6-triene-5-carbonitrile]	18	37	3740
C=CC(=O)N1CC2(CCN(c3nc4c(c(-c5c(C)ccc6c(Cl)c[nH]c56)c3C#N)COC(C)(C)C4)C2)C1 [Example 12-20, 4-(3-chloro-6-methyl-1H-indol-7-yl)-7,7-dimethyl-2-(2-(2-propenoyl)-2,6-diazaspiro[3.4]octan-6-yl)-7,8-dihydro-5H-pyrano[4,3-b]pyridine-3-carbonitrile]	2570	105	> 5000
C=CC(=O)N1CC2(CCN(c3nc4c(c(-c5c(C)c(Cl)cc6cnn(C)c56)c3C)CCN(C(C)C)C4)C2)C1 [Example 12-22, 1-(6-(4-(5-chloro-1,6-dimethyl-1H-indazol-7-yl)-3-methyl-7-(2-propanyl)-5,6,7,8-tetrahydro-1,7-naphthyridin-2-yl)-2,6-diazaspiro[3.4]octan-2-yl)-2-propen-1-one]	44	37	> 5000
C=CC(=O)N1CC2(CCN(c3nc4c(c(-c5cc(O)cc(F)c5Cl)c3C#N)C[C@H]3C[C@@H]4C3(C)C)C2)C1 [Example 12-34, (1R,9R)-6-(2-chloro-3-fluoro-5-hydroxyphenyl)-10,10-dimethyl-4-(2-(2-propenoyl)-2,6-diazaspiro[3.4]octan-6-yl)-3-azatricyclo[7.1.1.0^2,7] undeca-2,4,6-triene-5-carbonitrile]	92	20	> 5000
C=CC(=O)N1CC2(CCN(c3nc4c(c(-c5cc(O)cnc5Cl)c3C#N)C[C@H]3C[C@@H]4C3(C)C)C2)C1 [Example 12-35, (1R,9R)-6-(2-chloro-5-hydroxy-3-pyridinyl)-10,10-dimethyl-4-(2-(2-propenoyl)-2,6-diazaspiro[3.4]octan-6-yl)-3-azatricyclo[7.1.1.0^2,7] undeca-2,4,6-triene-5-carbonitrile]	1090	44	> 5000
C=CC(=O)N1CC2(CCN(c3nc4c(c(-c5cccc6cc(O)ccc56)c3C#N)COC(C)(C)C4)C2)C1 [Example 12-41, 4-(6-hydroxy-1-naphthalenyl)-7,7-dimethyl-2-(2-(2-propenoyl)-2,6-diazaspiro[3.4]octan-6-yl)-7,8-dihydro-5H-pyrano[4,3-b]pyridine-3-carbonitrile]	502	110	> 5000
C=CC(=O)N1CC2(CCN(c3nc4c(c(-c5cccc6c(F)c(O)ccc56)c3C)COC(C)(C)C4)C2)C1 [Example 12-45, 1-(6-(4-(5-fluoro-6-hydroxy-1-naphthalenyl)-3,7,7-trimethyl-7,8-dihydro-5H-pyrano[4,3-b]pyridin-2-yl)-2,6-diazaspiro[3.4]octan-2-yl)-2-propen-1-one]	> 5000	760	> 5000
